Measured values reported in ChEMBL document CHEMBL1201862, “PubChem BioAssay data set” (2004).
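Dose response: 5 concentrations. Exposure: 48 h. Format: 96-well plates. Endpoint: linear interpolation; highest concentration if not reached. GI50 marks 50% less growth.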 Activity calls are given as the source filed them. No stated cut-off is given here; in the data, active = GI50 up to about 1.1 µM and inactive = higher.

Tests used:
Test in all cases: DTP human tumour cell line panel, 48 h
M14 = tested on: M14
HT-29 = tested on: HT-29
CAKI-1 = tested on: CAKI-1
HL-60 = tested on: HL-60
SF-295 = tested on: SF-295
OVCAR-4 = tested on: OVCAR-4
A549 = tested on: A549
OVCAR-8 = tested on: OVCAR-8
MCF7 = tested on: MCF7
786-0 = tested on: 786-0
BT-549 = tested on: BT-549
HCT-116 = tested on: HCT-116
LOX IMVI = tested on: LOX IMVI
HCC 2998 = tested on: HCC 2998
NCI-H226 = tested on: NCI-H226
HCT-15 = tested on: HCT-15
Malme-3M = tested on: Malme-3M
SW-620 = tested on: SW-620
SK-MEL-2 = tested on: SK-MEL-2
A498 = tested on: A498

Compound | GI50 (M14) | GI50 (HT-29) | GI50 (CAKI-1) | GI50 (HL-60) | GI50 (SF-295) | GI50 (OVCAR-4) | GI50 (A549) | GI50 (OVCAR-8) | GI50 (MCF7) | GI50 (786-0) | GI50 (BT-549) | GI50 (HCT-116) | GI50 (LOX IMVI) | GI50 (HCC 2998) | GI50 (NCI-H226) | GI50 (HCT-15) | GI50 (Malme-3M) | GI50 (SW-620) | GI50 (SK-MEL-2) | GI50 (A498)
CC1(C)CC2(C)CC1CC2O (configuration not stated) | > 100 µM (inactive) | > 100 µM (inactive) | > 100 µM (inactive) | > 100 µM (inactive) | > 100 µM (inactive) | > 100 µM (inactive) | > 100 µM (inactive) | > 100 µM (inactive) | > 100 µM (inactive) | > 100 µM (inactive) | > 100 µM (inactive) | > 100 µM (inactive) | > 100 µM (inactive) | > 100 µM (inactive) | > 100 µM (inactive) | > 100 µM | > 100 µM (inactive) | > 100 µM (inactive) |  | 
CCc1cccc(C(C)CC)c1NC(=O)C(=O)Cc1nc2ccccc2o1 (configuration not stated) | > 50 µM (inactive) | > 50 µM (inactive) | > 50 µM (inactive) | > 50 µM (inactive) | > 50 µM (inactive) | > 50 µM (inactive) | > 50 µM (inactive) | > 50 µM (inactive) |  | > 50 µM (inactive) |  | > 50 µM (inactive) | > 50 µM (inactive) | > 50 µM (inactive) | 3.82 µM (inactive) | > 50 µM | > 50 µM (inactive) | > 50 µM (inactive) | > 50 µM (inactive) | > 50 µM (inactive)
C/C=C/OC1C(C2COC(C)(C)O2)OC2OC(C)(C)OC21 (configuration not stated) | > 100 µM (inactive) | > 100 µM (inactive) | > 100 µM (inactive) | > 100 µM (inactive) | > 100 µM (inactive) | > 100 µM (inactive) | > 100 µM (inactive) | > 100 µM (inactive) | > 100 µM (inactive) | > 100 µM (inactive) |  | > 100 µM (inactive) | > 100 µM (inactive) | > 100 µM (inactive) |  | > 100 µM | > 100 µM (inactive) | > 100 µM (inactive) | > 100 µM (inactive) | > 100 µM (inactive)
C/C(=N/NC(=S)N(C)C)c1ccccc1O | 7.35 µM (inactive) | 3.26 µM (inactive) | 25.7 µM (inactive) | > 22.5 µM (inactive) | 11.8 µM (inactive) | 11.3 µM (inactive) | 7.87 µM (inactive) | 5.22 µM (inactive) |  | 6.32 µM (inactive) | 10.4 µM (inactive) | 3.33 µM (inactive) | 4.86 µM (inactive) | 18.7 µM (inactive) | > 23.7 µM (inactive) | 3.28 µM | 7.26 µM (inactive) | 9.4 µM (inactive) | 11.9 µM (inactive) | 36.1 µM (inactive)
CC1=NN(c2ccccc2)C(=O)C1=C1SCCS1 | > 79.4 µM (inactive) | > 74.5 µM (inactive) | > 78.9 µM (inactive) | > 40 µM (inactive) | > 71.8 µM (inactive) | > 100 µM (inactive) | > 70 µM (inactive) | > 77.6 µM (inactive) |  | > 72.9 µM (inactive) |  | > 48 µM (inactive) | 42.6 µM (inactive) | > 87.1 µM (inactive) | > 64 µM (inactive) | 40.9 µM | > 67.6 µM (inactive) | > 38.3 µM (inactive) | > 100 µM (inactive) | > 77.1 µM (inactive)
N#CC1(C#N)C(C#N)(C#N)C12CCCCCC2 | 2.81 µM (inactive) | 17.2 µM (inactive) | 12.2 µM (inactive) | 3.48 µM (inactive) | > 39.7 µM (inactive) | 16.3 µM (inactive) | 14.7 µM (inactive) | 13.2 µM (inactive) |  | 6.59 µM (inactive) |  | 5.01 µM (inactive) | 16.7 µM (inactive) | 19.6 µM (inactive) | 20 µM (inactive) | 8.41 µM | 16.4 µM (inactive) | 1.95 µM (inactive) | 13.2 µM (inactive) | 18.5 µM (inactive)
CC1(C)N=c2c(ncn2CCO)=C(C(N)=O)N1 | > 100 µM (inactive) | > 100 µM (inactive) | > 100 µM (inactive) | > 100 µM (inactive) | > 100 µM (inactive) | > 100 µM (inactive) | > 100 µM (inactive) | > 100 µM (inactive) | > 100 µM (inactive) | > 100 µM (inactive) |  | > 100 µM (inactive) | > 100 µM (inactive) | > 100 µM (inactive) | > 100 µM (inactive) | > 100 µM | > 100 µM (inactive) | > 100 µM (inactive) |  | > 100 µM (inactive)
CCCN(CCC)C(=S)N/N=C/c1cccc(C)n1 | < 0.01 µM (active) | < 0.01 µM (active) | 0.382 µM (active) | < 0.01 µM (active) | 0.258 µM (active) | < 0.01 µM (active) | 0.108 µM (active) | 0.0217 µM (active) | < 0.01 µM (active) | 0.0237 µM (active) |  | < 0.01 µM (active) | 0.141 µM (active) |  | 0.129 µM (active) | 0.0438 µM | 0.697 µM (active) | 0.054 µM (active) | 0.594 µM (active) | 0.233 µM (active)
CCOC(=O)Cn1c(=O)c2nc(SC)sc2n(CC)c1=S | 5.78 µM (inactive) | > 100 µM (inactive) |  | > 100 µM (inactive) | > 100 µM (inactive) | 59.8 µM (inactive) | > 100 µM (inactive) | > 100 µM (inactive) | > 100 µM (inactive) | 0.173 µM (active) |  | > 100 µM (inactive) | > 100 µM (inactive) | > 100 µM (inactive) | > 100 µM (inactive) | 65.5 µM | > 100 µM (inactive) | > 100 µM (inactive) | > 100 µM (inactive) | 
O=C(Cc1ccccc1)N/N=C(\C1=Nc2ccc([N+](=O)[O-])cc2NC1O)C(O)c1ccc([N+](=O)[O-])cc1 (configuration not stated) | 30.8 µM (inactive) | > 100 µM (inactive) | > 100 µM (inactive) | 19.9 µM (inactive) | 53.1 µM (inactive) | > 10 µM (inactive) | > 100 µM (inactive) | > 100 µM (inactive) |  | > 100 µM (inactive) |  | > 100 µM (inactive) | 25.8 µM (inactive) | 99.5 µM (inactive) | > 100 µM (inactive) | > 100 µM | > 100 µM (inactive) | 80 µM (inactive) | > 100 µM (inactive) | > 100 µM (inactive)
O=C1/C(=N/c2ccc(Nc3ccccc3)cc2)Oc2ccccc21 | 2.33 µM (inactive) | 2.2 µM (inactive) | 1.85 µM (inactive) | 1.99 µM (inactive) | 3.35 µM (inactive) | 2.33 µM (inactive) | 3.51 µM (inactive) | 2.64 µM (inactive) | 2.55 µM (inactive) | 1.88 µM (inactive) |  | 1.67 µM (inactive) | 2.34 µM (inactive) | 8.26 µM (inactive) | 3.31 µM (inactive) | 3.3 µM | 2.99 µM (inactive) | 2.36 µM (inactive) | 3.3 µM (inactive) | 5.69 µM (inactive)
CC1CC(C)C(O)C(C2CC(CC(=O)NC3CCCCC3)CC(=O)O2)C1 (configuration not stated) | > 100 µM (inactive) | > 100 µM (inactive) | > 100 µM (inactive) | > 100 µM (inactive) | > 100 µM (inactive) | > 100 µM (inactive) | > 100 µM (inactive) | > 100 µM (inactive) | > 100 µM (inactive) | > 100 µM (inactive) |  | > 100 µM (inactive) | > 100 µM (inactive) | > 100 µM (inactive) | > 100 µM (inactive) | > 100 µM | > 100 µM (inactive) | > 100 µM (inactive) |  | > 100 µM (inactive)
COc1cc(C2c3cc4c(cc3OC(Nc3ccccc3)C2C)OCO4)cc(OC)c1O (configuration not stated) | 15.5 µM (inactive) | 3.85 µM (inactive) | 8.39 µM (inactive) | 1.92 µM (inactive) | 4.28 µM (inactive) | 11.8 µM (inactive) | 3.85 µM (inactive) | 4.75 µM (inactive) | 4.47 µM (inactive) | 7.5 µM (inactive) | 11.5 µM (inactive) | 3.93 µM (inactive) |  | 4.12 µM (inactive) | 19.6 µM (inactive) | 3.02 µM | 5.47 µM (inactive) | 3.37 µM (inactive) | 2.22 µM (inactive) | 
CC(=O)OC12c3ccccc3-c3ccccc3C1C1C(=O)OC(=O)C12 (configuration not stated) | > 10 µM (inactive) | > 10 µM (inactive) | > 10 µM (inactive) | > 10 µM (inactive) | > 10 µM (inactive) | > 10 µM (inactive) |  | > 10 µM (inactive) | > 10 µM (inactive) | > 10 µM (inactive) |  |  | > 10 µM (inactive) | > 10 µM (inactive) | > 10 µM (inactive) | > 10 µM | > 10 µM (inactive) | > 10 µM (inactive) | > 10 µM (inactive) | > 10 µM (inactive)
COc1ccc(/C=C\c2cc(OC)c3c(c2)OCO3)c(O)c1O | 3.56 µM (inactive) | 20.7 µM (inactive) | 2.79 µM (inactive) | 2.8 µM (inactive) | 8.3 µM (inactive) | 4.52 µM (inactive) | 9.04 µM (inactive) | 5.53 µM (inactive) |  | 3.26 µM (inactive) |  | 6.95 µM (inactive) | 4.53 µM (inactive) | 21.5 µM (inactive) | 16.1 µM (inactive) | 11 µM | 13.4 µM (inactive) | 8.3 µM (inactive) | 8.53 µM (inactive) | 8.3 µM (inactive)
O=C1CCc2ccccc2O1 [DIHYDROCOUMARIN] |  | > 100 µM (inactive) | > 100 µM (inactive) | > 100 µM (inactive) | > 100 µM (inactive) | > 100 µM (inactive) |  | > 100 µM (inactive) | > 100 µM (inactive) | > 100 µM (inactive) |  | > 100 µM (inactive) | > 100 µM (inactive) | > 100 µM (inactive) | > 100 µM (inactive) | > 100 µM | > 100 µM (inactive) | > 100 µM (inactive) | > 100 µM (inactive) | > 100 µM (inactive)
